Reference: PubChem BioAssay AID1259407 (Chemical Carcinogenesis Research Information System (CCRIS), 2018)
Calls of active or inactive are those of the source. No rule for the calls is given here.

Tested on: CCRIS mutagenicity, Ames/micronucleus/aberration tests
Test: CCRIS mutagenicity studies
[1] = Test System: AMES SALMONELLA TYPHIMURIUM, Strain/Indicator: TA97, Metabolic Activation: NONE, Method: STANDARD PLATE
[2] = Test System: AMES SALMONELLA TYPHIMURIUM, Strain/Indicator: TA100, Metabolic Activation: NONE, Method: STANDARD PLATE
[3] = Test System: AMES SALMONELLA TYPHIMURIUM, Strain/Indicator: TA100, Metabolic Activation: RAT, LIVER, S-9, Method: STANDARD PLATE
[4] = Test System: AMES SALMONELLA TYPHIMURIUM, Strain/Indicator: TA104, Metabolic Activation: NONE, Method: STANDARD PLATE
[5] = Test System: AMES SALMONELLA TYPHIMURIUM, Strain/Indicator: TA1537, Metabolic Activation: NONE, Method: STANDARD PLATE
[6] = Test System: AMES SALMONELLA TYPHIMURIUM, Strain/Indicator: TA98, Metabolic Activation: RAT, LIVER, S-9, PHENOBARBITAL, Method: STANDARD PLATE
[7] = Test System: AMES SALMONELLA TYPHIMURIUM, Strain/Indicator: TA100, Metabolic Activation: RAT, LIVER, S-9, PHENOBARBITAL, Method: STANDARD PLATE
[8] = Test System: AMES SALMONELLA TYPHIMURIUM, Strain/Indicator: TA98, Metabolic Activation: NONE, Method: STANDARD PLATE
[9] = Test System: AMES SALMONELLA TYPHIMURIUM, Strain/Indicator: TA98, Metabolic Activation: RAT, LIVER, S-9, AROCLOR 1254, Method: STANDARD PLATE
[10] = Test System: AMES SALMONELLA TYPHIMURIUM, Strain/Indicator: TA100, Metabolic Activation: RAT, LIVER, S-9, AROCLOR 1254, Method: STANDARD PLATE

SMILES: C#CCOCC[n+]1ccccc1/C=N/O
- mutagenic call [1]: inactive; negative
- mutagenic call (Test System: AMES SALMONELLA TYPHIMURIUM, Strain/Indicator: TA97, Metabolic Activation: RAT, LIVER, S-9, Method: STANDARD PLATE): inactive; negative
- mutagenic call [2]: inactive; negative
- mutagenic call [3]: inactive; negative
- mutagenic call [4]: inactive; negative
- mutagenic call (Test System: AMES SALMONELLA TYPHIMURIUM, Strain/Indicator: TA104, Metabolic Activation: RAT, LIVER, S-9, Method: STANDARD PLATE): inactive; negative
- mutagenic call [5]: inactive; negative
- mutagenic call (Test System: AMES SALMONELLA TYPHIMURIUM, Strain/Indicator: TA1537, Metabolic Activation: RAT, LIVER, S-9, Method: STANDARD PLATE): inactive; negative
- mutagenic call (Test System: AMES SALMONELLA TYPHIMURIUM, Strain/Indicator: TA1538, Metabolic Activation: NONE, Method: STANDARD PLATE): inactive; negative
- mutagenic call (Test System: AMES SALMONELLA TYPHIMURIUM, Strain/Indicator: TA1538, Metabolic Activation: RAT, LIVER, S-9, Method: STANDARD PLATE): inactive; negative

SMILES: COc1ccc2c(OC)c3ccoc3nc2c1
- mutagenic call [6]: active; positive
- mutagenic call [7]: active; positive

SMILES: c1ccc(C(c2ccccc2)c2ccccc2)cc1
- mutagenic call [1]: inactive; negative
- mutagenic call (Test System: AMES SALMONELLA TYPHIMURIUM, Strain/Indicator: TA97, Metabolic Activation: RAT, LIVER, S-9, AROCLOR 1254, Method: STANDARD PLATE): inactive; negative
- mutagenic call [8]: inactive; negative
- mutagenic call [9]: inactive; negative
- mutagenic call [2]: inactive; negative
- mutagenic call [10]: inactive; negative
- mutagenic call [4]: inactive; negative
- mutagenic call (Test System: AMES SALMONELLA TYPHIMURIUM, Strain/Indicator: TA104, Metabolic Activation: RAT, LIVER, S-9, AROCLOR 1254, Method: STANDARD PLATE): inactive; negative

SMILES: CC(C)CCOS(C)(=O)=O
- mutagenic call (End Point: IN VITRO MICRONUCLEUS, Test System: MOUSE LYMPHOMA L5178Y CELLS, Metabolic Activation: NONE): active; positive
- mutagenic call (End Point: IN VITRO MICRONUCLEUS, Test System: MOUSE LYMPHOMA L5178Y CELLS, Metabolic Activation: RAT, LIVER, S-9): inactive; negative
- mutagenic call [2]: active; positive
- mutagenic call [3]: active; positive

SMILES: O=C(O)/C(Cl)=C(/C(=O)O)C(Cl)Cl
- mutagenic call [1]: inactive; negative
- mutagenic call (Test System: AMES SALMONELLA TYPHIMURIUM, Strain/Indicator: TA97, Metabolic Activation: RAT, LIVER, S-9, PHENOBARBITAL, Method: STANDARD PLATE): inactive; negative
- mutagenic call [8]: inactive; negative
- mutagenic call [9]: inactive; negative
- mutagenic call [6]: inactive; negative
- mutagenic call [10]: inactive; negative
- mutagenic call [7]: inactive; negative
- mutagenic call (Test System: AMES SALMONELLA TYPHIMURIUM, Strain/Indicator: TA102, Metabolic Activation: NONE, Method: STANDARD PLATE): inactive; negative
- mutagenic call (Test System: AMES SALMONELLA TYPHIMURIUM, Strain/Indicator: TA102, Metabolic Activation: RAT, LIVER, S-9, AROCLOR 1254, Method: STANDARD PLATE): inactive; negative

SMILES: CCCCCCC(=O)OCC
- mutagenic call (Test System: AMES SALMONELLA TYPHIMURIUM, Strain/Indicator: TA97, Metabolic Activation: NONE, Method: PREINCUBATION): inactive; negative
- mutagenic call (Test System: AMES SALMONELLA TYPHIMURIUM, Strain/Indicator: TA97, Metabolic Activation: RAT, LIVER, S-9, AROCLOR 1254, Method: PREINCUBATION): inactive; negative
- mutagenic call (Test System: AMES SALMONELLA TYPHIMURIUM, Strain/Indicator: TA102, Metabolic Activation: NONE, Method: PREINCUBATION): inactive; negative
- mutagenic call (Test System: AMES SALMONELLA TYPHIMURIUM, Strain/Indicator: TA102, Metabolic Activation: RAT, LIVER, S-9, AROCLOR 1254, Method: PREINCUBATION): inactive; negative

SMILES: CC/C=C/C=C/C=C/C=C/C=C/OCC(O)c1ccccc1 (stereo not given)
- mutagenic call (Test System: AMES SALMONELLA TYPHIMURIUM, Strain/Indicator: TA100, Metabolic Activation: NONE, Method: PREINCUBATION): active; positive

SMILES: Nc1ccc(O)c2c1C(=O)C=CC2=O
- mutagenic call (Test System: Ames Salmonella typhimurium, Strain/Indicator: TA97, Metabolic Activation: None, Method: Preincubation): inactive; negative
- mutagenic call (Test System: Ames Salmonella typhimurium, Strain/Indicator: TA97, Metabolic Activation: Rat, Liver, S9, Aroclor 1254, Method: Preincubation): inactive; negative
- mutagenic call (Test System: Ames Salmonella typhimurium, Strain/Indicator: TA98, Metabolic Activation: None, Method: Preincubation): active; positive
- mutagenic call (Test System: Ames Salmonella typhimurium, Strain/Indicator: TA98, Metabolic Activation: Rat, Liver, S9, Aroclor 1254, Method: Preincubation): active; positive
- mutagenic call (Test System: Ames Salmonella typhimurium, Strain/Indicator: TA100, Metabolic Activation: None, Method: Preincubation): inactive; negative
- mutagenic call (Test System: Ames Salmonella typhimurium, Strain/Indicator: TA100, Metabolic Activation: Rat, Liver, S9, Aroclor 1254, Method: Preincubation): inactive; negative
- mutagenic call (Test System: Ames Salmonella typhimurium, Strain/Indicator: TA102, Metabolic Activation: None, Method: Preincubation): inactive; negative
- mutagenic call (Test System: Ames Salmonella typhimurium, Strain/Indicator: TA102, Metabolic Activation: Rat, Liver, S9, Aroclor 1254, Method: Preincubation): active; positive

SMILES: Cc1cc([N+](=O)[O-])c(C)c2c1[nH]c1ccc([N+](=O)[O-])cc12
- mutagenic call [8]: active; positive
- mutagenic call (Test System: AMES SALMONELLA TYPHIMURIUM, Strain/Indicator: TA98, Metabolic Activation: RAT LIVER S-9, AROCLOR 1254, Method: STANDARD PLATE): active; positive
- mutagenic call [2]: active; positive
- mutagenic call (Test System: AMES SALMONELLA TYPHIMURIUM, Strain/Indicator: TA100, Metabolic Activation: RAT LIVER S-9, AROCLOR 1254, Method: STANDARD PLATE): active; positive
- mutagenic call [5]: active; positive
- mutagenic call (Test System: AMES SALMONELLA TYPHIMURIUM, Strain/Indicator: TA1537, Metabolic Activation: RAT LIVER S-9, AROCLOR 1254, Method: STANDARD PLATE): active; positive
- mutagenic call (Test System: AMES SALMONELLA TYPHIMURIUM, Strain/Indicator: TA1977, Metabolic Activation: NONE, Method: STANDARD PLATE): active; positive
- mutagenic call (Test System: AMES SALMONELLA TYPHIMURIUM, Strain/Indicator: TA1977, Metabolic Activation: RAT LIVER S-9, AROCLOR 1254, Method: STANDARD PLATE): active; positive

SMILES: CCCCCCCCS(=O)C(C)Cc1ccc2c(c1)OCO2 (stereo not given)
- mutagenic call (End Point: IN VITRO CHROMOSOMAL ABERRATIONS, Test System: CHINESE HAMSTER OVARY CELLS, Metabolic Activation: NONE): inactive; negative
- mutagenic call (End Point: IN VITRO CHROMOSOMAL ABERRATIONS, Test System: CHINESE HAMSTER OVARY CELLS, Metabolic Activation: RAT, LIVER, S-9, AROCLOR 1254): inactive; negative

SMILES: O=CN(O)c1ccc(Oc2ccccc2)cc1
- mutagenic call [2]: inactive; negative
- mutagenic call (Test System: AMES SALMONELLA TYPHIMURIUM, Strain/Indicator: TA100, Metabolic Activation: RAT, LIVER, S-9, KANECLOR 500, Method: STANDARD PLATE): active; positive

SMILES: O=C(Nc1cccc(F)c1)c1csc([N+](=O)[O-])c1
- mutagenic call [8]: active; positive
- mutagenic call [2]: active; positive
